Key:
[1] = system: KP1005 (CTX-M-14); assay: Potentiation of aztreonam, strain KP1005; format: cell-based
[2] = system: KP1009 (CTX-M-15); assay: Potentiation of aztreonam, strain KP1009; format: cell-based
[3] = system: ec308 (SHV-5); assay: Potentiation of aztreonam, strain ec308; format: cell-based; details: minimum BLI concentration inhibiting growth with 4 μg/mL aztreonam
[4] = system: ec302 (TEM-10); assay: Potentiation of aztreonam, strain ec302; format: cell-based
[5] = system: KP1004 (K-2); assay: Potentiation of aztreonam, strain KP1004; format: cell-based; details: minimum BLI concentration inhibiting growth with 4 μg/mL aztreonam
[6] = system: ECL1002; assay: Potentiation of aztreonam, strain ECL1002; format: cell-based; details: minimum BLI concentration inhibiting growth with 4 μg/mL aztreonam
[7] = system: EC1010 (CMY-6); assay: Potentiation of aztreonam, strain EC1010; format: cell-based
[8] = system: ec308 (SHV-5); assay: Potentiation of tigemonam, strain ec308; format: cell-based; details: minimum BLI concentration inhibiting growth with 4 μg/mL tigemonam
[9] = system: ec302 (TEM-10); assay: Potentiation of tigemonam, strain ec302; format: cell-based
[10] = system: EC1010 (CMY-6); format: cell-based
[11] = target: CTX-M-14 (Escherichia coli, UniProt Q9L5C7); assay: Inhibition of nitrocefin cleavage by purified CTX-M-14; format: biochemical; details: nitrocefin reporter substrate, purified enzyme; read-out: Ki (CTX-M-14, NCF)
Experimental: (§1) Purified enzymes were mixed with various concentrations of inhibitors in reaction buffer and incubated for 10 min at room temperature. Nitrocefin was added and substrate cleavage profiles were recorded at 490 nm every 10 sec for 10 min.

[12] = target: SHV-12 (Klebsiella pneumoniae, UniProt P0AD64, E235K/G234S/L31Q); assay: Inhibition of nitrocefin cleavage by purified SHV-12; format: biochemical; details: nitrocefin reporter substrate, purified enzyme; read-out: Ki (SHV-12, NCF)
Experimental: as §1

[13] = target: KPC-2 (Klebsiella pneumoniae, UniProt Q9F663); assay: Inhibition of nitrocefin cleavage by purified KPC-2; format: biochemical; details: nitrocefin reporter substrate, purified enzyme; read-out: Ki (KPC-2, NCF)
Experimental: as §1

[14] = target: T1, Chymotrypsin (Bos taurus, UniProt P00766); assay: Serine protease inhibition: chymotrypsin; format: biochemical, mammalian; details: Table 8A, class symbols; read-out: IC50 Chymotrypsin
T1 construct: purchased Calbiochem 230832
Experimental: (§2) The effect of selected BLIs on the enzymatic activity of some common mammalian serine proteases was evaluated.
(§3) 50 μl of the diluted enzyme was mixed with 50 μl of inhibitor at various concentrations and 50 μl of corresponding buffer (Table 7). Reaction mixtures were incubated for 10 min at 37° C. Subsequently, 50 μl of corresponding substrate (Table 7) was added and absorbance or fluorescence was monitored for 30 min on SpectraMax M2 plate reader (Molecular Devices). 4-(2-Aminoethyl)benzenesulfonyl fluoride hydrochloride (AEBSF) and leupeptin were used as positive controls. Rates of reaction were calculated and presented relative to “no treatment” control.

[15] = target: T2, Thrombin (Homo sapiens, UniProt P00734); assay: Serine protease inhibition: thrombin; format: biochemical, mammalian; details: Table 8A, class symbols; read-out: IC50 Thrombin
T2 construct: Thrombin; MPBio; 19491880; purchased MPBio 19491880
Experimental: as §2, §3

[16] = target: T3, Chymase (Homo sapiens, UniProt P23946); assay: Serine protease inhibition: chymase; format: biochemical, mammalian; details: Table 8A, class symbols; read-out: IC50 Chymase
T3 construct: purchased Enzo Lifescience BML-SE281
T3 sequence (P23946 22-247): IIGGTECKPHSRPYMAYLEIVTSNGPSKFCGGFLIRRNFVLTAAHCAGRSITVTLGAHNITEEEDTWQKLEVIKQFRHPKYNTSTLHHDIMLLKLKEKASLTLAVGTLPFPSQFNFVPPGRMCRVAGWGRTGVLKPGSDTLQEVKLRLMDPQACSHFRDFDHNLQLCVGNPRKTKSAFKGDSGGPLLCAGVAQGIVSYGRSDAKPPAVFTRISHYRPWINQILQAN
Experimental: as §2, §3

[17] = target: T4, Neutrophil elastase (Homo sapiens, UniProt P08246); assay: Serine protease inhibition: neutrophil elastase; format: biochemical, mammalian; details: Table 8B; read-out: IC50 Neutrophil elastase
T4 construct: purchased Calbiochem 324681
T4 sequence (P08246 30-267): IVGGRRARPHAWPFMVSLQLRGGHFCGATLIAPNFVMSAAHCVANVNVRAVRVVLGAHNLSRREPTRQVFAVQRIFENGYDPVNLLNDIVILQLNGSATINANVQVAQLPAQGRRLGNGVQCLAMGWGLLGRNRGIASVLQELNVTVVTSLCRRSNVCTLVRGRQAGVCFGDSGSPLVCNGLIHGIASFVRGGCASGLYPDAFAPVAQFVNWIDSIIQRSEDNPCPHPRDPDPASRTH
Experimental: as §2, §3

[18] = target: T5, CathepsinA (Homo sapiens, UniProt P10619); assay: Serine protease inhibition: cathepsin A; format: biochemical, mammalian; details: Table 8B; read-out: IC50 CathepsinA
T5 construct: purchased R&D Systems 1049-SE
T5 sequence (P10619 29-480): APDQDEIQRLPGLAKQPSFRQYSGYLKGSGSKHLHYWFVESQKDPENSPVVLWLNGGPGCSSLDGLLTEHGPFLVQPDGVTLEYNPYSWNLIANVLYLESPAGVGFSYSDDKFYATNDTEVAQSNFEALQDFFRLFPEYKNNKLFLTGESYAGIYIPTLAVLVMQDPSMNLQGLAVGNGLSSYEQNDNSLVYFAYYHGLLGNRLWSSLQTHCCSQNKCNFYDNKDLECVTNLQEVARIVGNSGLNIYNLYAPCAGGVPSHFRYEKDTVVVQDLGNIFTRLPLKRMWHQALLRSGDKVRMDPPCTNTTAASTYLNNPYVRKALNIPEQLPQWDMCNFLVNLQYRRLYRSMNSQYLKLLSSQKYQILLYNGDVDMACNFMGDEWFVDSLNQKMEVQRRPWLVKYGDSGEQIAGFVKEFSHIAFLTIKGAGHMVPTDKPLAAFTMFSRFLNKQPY
Experimental: as §2, §3

[19] = target: T6, CathepsinG (Homo sapiens, UniProt P08311); assay: Serine protease inhibition: cathepsin G; format: biochemical, mammalian; details: Table 8B
T6 construct: purchased EMD Millipore 219373
T6 sequence (P08311 21-244): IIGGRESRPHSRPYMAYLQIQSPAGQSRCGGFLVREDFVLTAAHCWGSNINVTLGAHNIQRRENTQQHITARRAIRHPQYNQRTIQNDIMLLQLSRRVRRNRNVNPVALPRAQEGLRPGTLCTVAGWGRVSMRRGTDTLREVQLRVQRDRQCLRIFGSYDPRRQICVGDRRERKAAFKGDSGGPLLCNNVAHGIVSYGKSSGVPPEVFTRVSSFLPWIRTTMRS
Experimental: as §2, §3

[20] = target: T7, Dipeptidyl peptidase 8 (DPP8) (Homo sapiens, UniProt Q6V1X1); assay: Serine protease inhibition: DPP8; format: biochemical, mammalian; details: Table 8B; read-out: IC50 DPP8
T7 construct: purchased BPS Bioscience 80080
Experimental: as §2, §3

[21] = target: T8, Dipeptidyl peptidase 9 (DPP9) (Homo sapiens, UniProt Q86TI2); assay: Serine protease inhibition: DPP9; format: biochemical, mammalian; details: Table 8B; read-out: IC50 DPP9
T8 construct: purchased BPS Bioscience 80090
Experimental: as §2, §3

[22] = system: KP1009 (CTX-M-15); assay: Potentiation of tigemonam, strain KP1009; details: minimum BLI concentration inhibiting growth with 4 μg/mL tigemonam
[23] = target: P99 (Enterobacter cloacae, UniProt P05364); assay: Inhibition of nitrocefin cleavage by purified P99; format: biochemical; details: nitrocefin reporter substrate, purified enzyme; read-out: Ki (P99, NCF)
Experimental: as §1

[24] = target: CMY-2 (Klebsiella pneumoniae, UniProt Q48434); assay: Inhibition of nitrocefin cleavage by purified CMY-2; format: biochemical; details: nitrocefin reporter substrate, purified enzyme; read-out: Ki (CMY-2, NCF)
Experimental: as §1

[25] = target: OXA-48 (Klebsiella pneumoniae, UniProt Q6XEC0); assay: Inhibition of nitrocefin cleavage by purified OXA-48; format: biochemical; details: nitrocefin reporter substrate, purified enzyme; read-out: Ki (OXA-48, NCF)
Experimental: as §1

[26] = system: PAM1032/KPC-2; assay: Biapenem potentiation in PAM1032/KPC-2 (MexAB-OprM overexpressed); format: cell-based, Pseudomonas aeruginosa
Experimental: (§4) Efflux of BLIs from Pseudomonas aeruginosa by the MexAB-OprM efflux pump was also evaluated. […] Due to expression of KPC-2 both strains became resistant to biapenem. […] Potency of BLIs to potentiate biapenem in these strains was determined. […] The ratio of MPC64 values for each BLI in PAM1032/KPC-2 (efflux proficient) and PAM1154/KPC-2 (efflux deficient) was determined to generate the Efflux Index (EI).

[27] = system: PAM1154/KPC-2; assay: Biapenem potentiation in PAM1154/KPC-2 (MexAB-OprM lacking); format: cell-based, Pseudomonas aeruginosa
Experimental: as §4

Chain of CTX-M-14 (Q9L5C7 entry or part of it): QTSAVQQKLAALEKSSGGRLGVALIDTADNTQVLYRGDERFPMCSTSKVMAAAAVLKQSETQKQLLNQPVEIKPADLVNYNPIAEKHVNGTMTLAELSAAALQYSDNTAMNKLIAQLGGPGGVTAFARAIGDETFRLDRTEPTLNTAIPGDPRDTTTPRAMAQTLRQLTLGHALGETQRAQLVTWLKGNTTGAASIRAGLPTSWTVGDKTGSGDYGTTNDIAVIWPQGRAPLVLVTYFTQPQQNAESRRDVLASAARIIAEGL
Chain of SHV-12 (P0AD64 22-286 L31Q/G234S/E235K): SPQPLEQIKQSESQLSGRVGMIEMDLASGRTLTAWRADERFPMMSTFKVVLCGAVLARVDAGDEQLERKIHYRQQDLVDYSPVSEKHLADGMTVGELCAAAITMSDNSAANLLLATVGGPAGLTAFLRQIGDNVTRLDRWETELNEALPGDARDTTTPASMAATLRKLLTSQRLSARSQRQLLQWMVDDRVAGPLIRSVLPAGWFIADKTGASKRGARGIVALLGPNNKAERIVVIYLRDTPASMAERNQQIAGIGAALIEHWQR
Chain of OXA-48 (Q6XEC0 23-265 limits assumed): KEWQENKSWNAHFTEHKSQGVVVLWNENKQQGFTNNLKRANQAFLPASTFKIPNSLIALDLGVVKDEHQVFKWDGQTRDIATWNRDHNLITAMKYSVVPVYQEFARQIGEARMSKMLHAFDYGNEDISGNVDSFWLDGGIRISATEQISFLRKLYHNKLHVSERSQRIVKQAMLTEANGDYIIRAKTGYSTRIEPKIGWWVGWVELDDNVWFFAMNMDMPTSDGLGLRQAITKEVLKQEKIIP
T8 sequence (Q86TI2 whole entry): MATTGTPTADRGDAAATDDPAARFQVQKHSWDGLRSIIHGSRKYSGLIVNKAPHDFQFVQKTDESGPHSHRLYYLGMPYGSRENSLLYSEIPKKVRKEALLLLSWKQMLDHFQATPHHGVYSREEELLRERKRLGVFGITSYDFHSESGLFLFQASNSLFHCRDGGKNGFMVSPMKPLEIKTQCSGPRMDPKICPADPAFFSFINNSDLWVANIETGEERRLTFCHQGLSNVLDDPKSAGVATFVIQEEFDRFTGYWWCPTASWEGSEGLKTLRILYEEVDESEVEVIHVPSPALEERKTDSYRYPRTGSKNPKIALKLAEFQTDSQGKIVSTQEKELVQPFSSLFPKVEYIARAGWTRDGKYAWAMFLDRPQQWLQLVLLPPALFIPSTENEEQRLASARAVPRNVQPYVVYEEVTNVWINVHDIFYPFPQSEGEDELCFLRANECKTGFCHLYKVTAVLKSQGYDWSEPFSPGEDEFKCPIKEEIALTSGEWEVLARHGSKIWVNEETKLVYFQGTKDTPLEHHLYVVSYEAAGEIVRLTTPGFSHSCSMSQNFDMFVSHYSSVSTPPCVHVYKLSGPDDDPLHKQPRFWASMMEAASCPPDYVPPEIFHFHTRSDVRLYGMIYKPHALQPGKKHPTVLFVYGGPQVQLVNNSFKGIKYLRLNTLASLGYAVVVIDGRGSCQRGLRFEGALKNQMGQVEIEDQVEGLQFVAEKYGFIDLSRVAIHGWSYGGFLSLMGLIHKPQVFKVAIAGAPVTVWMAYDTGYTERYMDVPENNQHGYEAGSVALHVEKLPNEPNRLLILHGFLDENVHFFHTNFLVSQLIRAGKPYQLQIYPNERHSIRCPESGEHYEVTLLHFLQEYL
T7 sequence (Q6V1X1 whole entry): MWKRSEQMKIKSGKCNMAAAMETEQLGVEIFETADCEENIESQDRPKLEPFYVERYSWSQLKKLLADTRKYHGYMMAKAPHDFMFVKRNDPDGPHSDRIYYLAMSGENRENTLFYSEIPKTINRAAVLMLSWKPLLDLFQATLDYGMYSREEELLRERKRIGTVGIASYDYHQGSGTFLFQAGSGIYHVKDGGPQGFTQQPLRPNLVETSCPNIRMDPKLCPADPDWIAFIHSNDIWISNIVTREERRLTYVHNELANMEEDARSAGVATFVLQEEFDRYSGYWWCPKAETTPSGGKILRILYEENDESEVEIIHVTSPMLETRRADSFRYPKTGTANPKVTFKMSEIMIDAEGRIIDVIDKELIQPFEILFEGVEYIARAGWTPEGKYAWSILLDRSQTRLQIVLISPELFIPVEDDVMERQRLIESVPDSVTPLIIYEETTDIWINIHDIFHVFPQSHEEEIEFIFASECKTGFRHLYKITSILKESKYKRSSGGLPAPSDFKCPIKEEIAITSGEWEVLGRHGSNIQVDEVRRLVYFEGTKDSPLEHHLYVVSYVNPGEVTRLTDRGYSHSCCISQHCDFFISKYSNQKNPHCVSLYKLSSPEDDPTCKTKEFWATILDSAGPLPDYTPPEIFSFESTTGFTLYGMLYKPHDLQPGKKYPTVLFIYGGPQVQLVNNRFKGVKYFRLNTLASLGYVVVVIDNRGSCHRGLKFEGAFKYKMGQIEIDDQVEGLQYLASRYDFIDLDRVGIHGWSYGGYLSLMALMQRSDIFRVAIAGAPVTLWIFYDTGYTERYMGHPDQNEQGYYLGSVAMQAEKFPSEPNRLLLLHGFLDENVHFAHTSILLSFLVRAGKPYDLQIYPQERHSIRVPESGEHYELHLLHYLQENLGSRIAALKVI
Chain of KPC-2 (Q9F663 25-293, looked up, species assumed): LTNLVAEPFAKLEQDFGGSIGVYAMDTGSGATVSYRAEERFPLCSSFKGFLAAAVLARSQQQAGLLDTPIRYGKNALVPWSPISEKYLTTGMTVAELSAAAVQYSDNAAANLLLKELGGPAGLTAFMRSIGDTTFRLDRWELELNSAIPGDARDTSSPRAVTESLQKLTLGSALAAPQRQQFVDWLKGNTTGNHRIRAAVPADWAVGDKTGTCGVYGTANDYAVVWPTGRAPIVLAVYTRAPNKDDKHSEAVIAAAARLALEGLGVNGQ
Chain of CMY-2 (Q48434 21-381, species assumed): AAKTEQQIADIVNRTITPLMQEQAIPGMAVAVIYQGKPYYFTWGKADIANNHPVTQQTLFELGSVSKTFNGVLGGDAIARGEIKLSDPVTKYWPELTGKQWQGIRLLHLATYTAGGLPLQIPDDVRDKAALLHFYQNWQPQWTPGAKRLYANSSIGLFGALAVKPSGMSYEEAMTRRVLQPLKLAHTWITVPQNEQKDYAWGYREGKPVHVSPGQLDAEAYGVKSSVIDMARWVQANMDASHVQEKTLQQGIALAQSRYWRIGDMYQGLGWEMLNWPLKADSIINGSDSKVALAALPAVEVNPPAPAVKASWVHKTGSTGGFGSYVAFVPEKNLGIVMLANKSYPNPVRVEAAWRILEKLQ
Chain of P99 (P05364 21-381): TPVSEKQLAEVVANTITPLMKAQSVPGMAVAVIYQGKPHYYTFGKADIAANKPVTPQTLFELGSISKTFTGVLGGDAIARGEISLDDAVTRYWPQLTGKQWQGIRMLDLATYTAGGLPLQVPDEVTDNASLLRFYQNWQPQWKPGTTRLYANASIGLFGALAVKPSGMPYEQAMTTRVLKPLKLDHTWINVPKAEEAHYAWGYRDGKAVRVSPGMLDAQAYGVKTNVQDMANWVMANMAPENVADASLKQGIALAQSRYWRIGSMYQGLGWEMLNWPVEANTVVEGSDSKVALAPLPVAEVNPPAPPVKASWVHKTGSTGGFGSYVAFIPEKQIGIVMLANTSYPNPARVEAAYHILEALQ

Structure (SMILES)	AZT MPC4 CTX-M-14 KP1005 [1]	AZT MPC4 SHV-5 ec308 [3]	AZT MPC4 TEM-10 ec302 [4]	AZT MPC4 K-2 KP1004 [5]	AZT MPC4 ECL1002 [6]	TIG MPC4 SHV-5 ec308 [8]	TIG MPC4 TEM-10 ec302 [9]	TIG MPC4 CMY-6 EC1010 [10]	Ki [11] [µM]	Ki [12] [µM]	TIG MPC4 CTX-M-15 KP1009 [22]	also measured
O=C(COCc1ccccc1)N[C@H]1Cc2cccc(C(=O)O)c2OB1O [CPD B, reference compound]	Z (key: X = MIC of less than 1 μg/mL; Y = MIC of 1 μg/mL to 10 μg/mL; Z = MIC of greater than 10 μg/mL)	Y (Y = MIC of 1 μg/mL to 10 μg/mL)	Z (key: X = MIC of less than 1 μg/mL; Y = MIC of 1 μg/mL to 10 μg/mL; Z = MIC of greater than 10 μg/mL)	Z (Z = MIC of greater than 10 μg/mL)	Z (Z = MIC of greater than 10 μg/mL)	Y (Y = MIC of 1 μg/mL to 10 μg/mL)	Z (key: X = MIC of less than 1 μg/mL; Y = MIC of 1 μg/mL to 10 μg/mL; Z = MIC of greater than 10 μg/mL)	Y (key: X = MIC of less than 1 μg/mL; Y = MIC of 1 μg/mL to 10 μg/mL; Z = MIC of greater than 10 μg/mL)	< 0.001	< 0.001	Z (Z = MIC of greater than 10 μg/mL)	AZT MPC4 CTX-M-15 KP1009 [2]: Z (key: X = MIC of less than 1 μg/mL; Y = MIC of 1 μg/mL to 10 μg/mL; Z = MIC of greater than 10 μg/mL); AZT MPC4 CMY-6 EC1010 [7]: Z (key: X = MIC of less than 1 μg/mL; Y = MIC of 1 μg/mL to 10 μg/mL; Z = MIC of greater than 10 μg/mL); Ki [13]: > 0.01 µM; IC50 [14]: > 800 µM; IC50 [15]: > 800 µM; IC50 [16]: 300 to 800 µM; IC50 [17]: > 500 µM; IC50 [18]: 15 to 500 µM; IC50 [19]: 15 to 500 µM; IC50 [20]: 15 to 500 µM; IC50 [21]: > 500 µM
NC(=O)CC(=O)N[C@H]1Cc2cccc(C(=O)O)c2OB1O [Compound 16, (R)-3-(3-amino-3-oxopropanamido)-2-hydroxy-3,4-dihydro-2H-benzo[e][1,2]oxaborinine-8-carboxylic acid]	X (key: X = MIC of less than 1 μg/mL; Y = MIC of 1 μg/mL to 10 μg/mL; Z = MIC of greater than 10 μg/mL)	X (X = MIC of less than 1 μg/mL)	X (key: X = MIC of less than 1 μg/mL; Y = MIC of 1 μg/mL to 10 μg/mL; Z = MIC of greater than 10 μg/mL)	Y (Y = MIC of 1 μg/mL to 10 μg/mL)	X (X = MIC of less than 1 μg/mL)	Y (Y = MIC of 1 μg/mL to 10 μg/mL)	Y (key: X = MIC of less than 1 μg/mL; Y = MIC of 1 μg/mL to 10 μg/mL; Z = MIC of greater than 10 μg/mL)	X (key: X = MIC of less than 1 μg/mL; Y = MIC of 1 μg/mL to 10 μg/mL; Z = MIC of greater than 10 μg/mL)	0.001 to 0.01	< 0.001	X (X = MIC of less than 1 μg/mL)	Ki [23]: 0.001 to 0.01 µM; Ki [24]: 0.001 to 0.01 µM; Ki [25]: 0.001 to 0.01 µM; PAM1032/KPC-2 Biapenem MPC64 [26]: X (key: X = Less than 10; Y = 10 to 40; Z Greater than 40); PAM1154/KPC-2 Biapenem MPC64 [27]: X (key: X = Less than 10; Y = 10 to 40; Z Greater than 40)
